Earlier results in patent US20070059297A1, “Methods and compositions for improving visual acuity” (Nestec, S.A., priority 2005, published 2007).

Tested on: rat retina neuronal cells
Conditions: in vitro incubation

CC/C=C\C/C=C\C/C=C\C/C=C\C/C=C\C/C=C\CCC(=O)O [DHA, docosahexaenoic acid]
DHA content of cells incubated with DHA versus cells incubated with other fatty acids: four- to six-fold more DHA
